Measurements: patent US8569301B2, “6, 6-dioxo-6-thia-1, 4-diaza-naphthalenes as herbicides” (Syngenta Limited, priority 2009, dated 2013)

Legend:
Format in all cases: in vivo
Conditions in all cases: sprayed after 8 days cultivation, evaluated after 13 days, scores from 10 to 0 (10=total damage to plant; 0=no damage to plant)
ECHCG = experiment: Example B1 herbicidal action post-emergence, ECHCG
Protocol: (§1) Seeds of a variety of test species were sown in standard soil in pots. After 8 days cultivation (post-emergence) under controlled conditions in a glasshouse (at 24/16° C., day/night; 14 hours light; 65% humidity), the plants were sprayed with an aqueous spray solution derived from the formulation of the technical active ingredient in acetone/water (50:50) solution containing 0.5% Tween 20 (polyoxyethelyene sorbitan monolaurate, CAS RN 9005-64-5). The test plants were then grown under controlled conditions in a glasshouse (at 24/16° C., day/night; 14 hours light; 65% humidity) and watered twice daily. After 13 days, the test was evaluated and the assessed scores, from 10 to 0, are tabulated in Table B1 (10=total damage to plant; 0=no damage to plant).

IPOHE = experiment: Example B1 herbicidal action post-emergence, IPOHE
Protocol: as §1

SETFA = experiment: Example B1 herbicidal action post-emergence, SETFA
Protocol: as §1

SOLNI = experiment: Example B1 herbicidal action post-emergence, SOLNI
Protocol: as §1

AMARE = experiment: Example B1 herbicidal action post-emergence, AMARE
Protocol: as §1

| SMILES | assessed score, application post-emergence, ECHCG (ECHCG; Rate 1000 g/ha) | assessed score, application post-emergence, IPOHE (IPOHE; Rate 1000 g/ha) | assessed score, application post-emergence, SETFA (SETFA; Rate 1000 g/ha) | assessed score, application post-emergence, SOLNI (SOLNI; Rate 1000 g/ha) | assessed score, application post-emergence, AMARE (AMARE; Rate 1000 g/ha) | assessed score, application post-emergence, ECHCG (ECHCG; Rate 250 g/ha) | assessed score, application post-emergence, IPOHE (IPOHE; Rate 250 g/ha) | assessed score, application post-emergence, SETFA (SETFA; Rate 250 g/ha) | assessed score, application post-emergence, SOLNI (SOLNI; Rate 250 g/ha) | assessed score, application post-emergence, AMARE (AMARE; Rate 250 g/ha) |
| --- | --- | --- | --- | --- | --- | --- | --- | --- | --- | --- |
| O=S1(=O)Cc2nccnc2C(O)=C1c1c(Cl)cccc1Cl [Compound C19] | 7 | 8 | 8 | 9 | 7 | – | – | – | – | – |
| Cc1cc(C)c(C2=C(O)c3nccnc3CS2(=O)=O)c(C)c1 [Compound C20] | 4 | 7 | 4 | 7 | 1 | – | – | – | – | – |
| O=S1(=O)Cc2nccnc2C(O)=C1c1c(F)ccc(Br)c1Cl [Compound C21, 7-(3-bromo-2-chloro-6-fluoro-phenyl)-6,6-dioxo-5,6-dihydro-6-thia-1,4-diaza-naphthalen-8-ol] | 7 | 8 | 7 | 10 | 9 | – | – | – | – | – |
| O=S1(=O)Cc2nccnc2C(O)=C1c1ccc(Br)cc1C(F)(F)F [Compound C22] | 5 | 7 | 5 | 9 | 10 | – | – | – | – | – |
| O=S1(=O)Cc2nccnc2C(O)=C1c1c(Cl)cc(Cl)cc1Cl [Compound C23] | 8 | 8 | 7 | 9 | 8 | – | – | – | – | – |
| CCc1cc(-c2ccc(Cl)cc2Cl)ccc1C1=C(O)c2nccnc2CS1(=O)=O [Compound C24] | 7 | 3 | 10 | 6 | 10 | – | – | – | – | – |
| CCC1c2nccnc2C(O)=C(c2c(Cl)cccc2C(F)(F)F)S1(=O)=O (stereo not shown) [Compound E1, 7-(2-chloro-6-trifluoromethyl-phenyl)-5-ethyl-6,6-dioxo-5,6-dihydro-6-thia-1,4-diaza-naphthalen-8-ol] | 7 | 7 | 8 | 9 | 9 | – | – | – | – | – |
| O=S1(=O)C(c2c(F)ccc(Br)c2Cl)=C(O)c2nccnc2C1CC(F)F (stereo not shown) [Compound E9] | 3 | 8 | 5 | 9 | 10 | – | – | – | – | – |
| CCC1c2nccnc2C(O)=C(c2c(F)ccc(Br)c2Cl)S1(=O)=O (stereo not shown) [Compound E10] | – | – | – | – | – | 4 | 8 | 7 | 7 | 7 |
| CC1c2nccnc2C(O)=C(c2c(F)ccc(Br)c2Cl)S1(=O)=O (stereo not shown) [Compound E11] | 8 | 9 | 8 | 10 | 8 | – | – | – | – | – |
| CCC1c2nccnc2C(O)=C(c2ccc(Br)cc2C(F)(F)F)S1(=O)=O (stereo not shown) [Compound E14] | 7 | 7 | 6 | 10 | 9 | – | – | – | – | – |
| C#CCC1c2nccnc2C(O)=C(c2c(C)cc(C)cc2C)S1(=O)=O (stereo not shown) [Compound E16] | 2 | 5 | 2 | 8 | 5 | – | – | – | – | – |
| Cc1cc(C)c(C2=C(O)c3nccnc3C(CC(F)F)S2(=O)=O)c(C)c1 (stereo not shown) [Compound E17] | 10 | 7 | 10 | 7 | 10 | – | – | – | – | – |
| Cc1cc(C)c(C2=C(O)c3nccnc3C(C)S2(=O)=O)c(C)c1 (stereo not shown) [Compound E19] | 5 | 7 | 5 | 8 | 3 | – | – | – | – | – |
| CC#CCC1c2nccnc2C(O)=C(c2c(F)ccc(Br)c2Cl)S1(=O)=O (stereo not shown) [Compound E21] | 7 | 8 | 4 | 9 | 6 | – | – | – | – | – |
| O=S1(=O)C(c2c(F)ccc(Br)c2Cl)=C(O)c2nccnc2C1Cc1ccccc1 (stereo not shown) [Compound E23] | 8 | 6 | 4 | 8 | 6 | – | – | – | – | – |
| O=S1(=O)C(c2c(F)ccc(Br)c2Cl)=C(O)c2nccnc2C1Cc1ccc(Cl)s1 (stereo not shown) [Compound E24] | 0 | 5 | 0 | 7 | 6 | – | – | – | – | – |
| Cc1cc(C)c(C2=C(O)c3nccnc3C(C)(C)S2(=O)=O)c(C)c1 [Compound F1, 5,5-dimethyl-6,6-dioxo-7-(2,4,6-trimethyl-phenyl)-5,6-dihydro-6-thia-1,4-diaza-naphthalen-8-ol] | 8 | 8 | 8 | 10 | 10 | – | – | – | – | – |
| CC1(C)c2nccnc2C(O)=C(c2c(F)ccc(Br)c2Cl)S1(=O)=O [Compound F2] | 8 | 9 | 9 | 10 | 10 | – | – | – | – | – |
| O=S1(=O)C(c2c(Cl)cccc2C(F)(F)F)=C(O)c2nccnc2C12CC2 [Compound F4] | 6 | 7 | 8 | 9 | 9 | – | – | – | – | – |
| CC1(C)c2nccnc2C(O)=C(c2cc(Cl)ccc2C(F)(F)F)S1(=O)=O [Compound F5] | 8 | 9 | 6 | 10 | 10 | – | – | – | – | – |
| CC1(C)c2nccnc2C(O)=C(c2ccc(Br)cc2C(F)(F)F)S1(=O)=O [Compound F6] | – | – | – | – | – | 9 | 8 | 8 | 9 | 9 |
| O=S1(=O)C(c2c(F)ccc(Br)c2Cl)=C(O)c2nccnc2C12CCC2 [Compound F7] | 1 | 6 | 1 | 5 | 4 | – | – | – | – | – |
| CC1(C)c2nccnc2C(O)=C(c2c(Cl)cccc2C(F)(F)F)S1(=O)=O [Compound F9] | 8 | 9 | 8 | 8 | 9 | – | – | – | – | – |
| O=S1(=O)C(c2cc(Cl)ccc2C(F)(F)F)=C(O)c2nccnc2C12CC2 [Compound F11, 7-(5-chloro-2-trifluoromethyl-phenyl)-5,5-cyclopropyl-6,6-dioxo-5,6-dihydro-6-thia-1,4-diaza-naphthalen-8-ol] | 3 | 7 | 2 | 7 | 6 | – | – | – | – | – |
| CCOCOC1=C(c2cc(Cl)ccc2C(F)(F)F)S(=O)(=O)Cc2nccnc21 [Compound X1, 7-(5-chloro-2-trifluoromethyl-phenyl)-8-ethoxymethoxy-5H-6-thia-1,4-diaza-naphthalene 6,6-dioxide] | 2 | 7 | 6 | 8 | 6 | – | – | – | – | – |
